The values below come from US11718628B2, “SREBP inhibitors comprising a 6-membered central ring” (Capulus Therapeutics, LLC, priority 2018, dated 2023).

As a reminder, the IC50 is the point on the concentration scale where inhibition reaches its midpoint.

The structures appear in SMILES notation. Where only a bound is given, the exact number is not on record here.

For this assay, the system named is SREBP. Nature of the assay: Reporter screening assay (SRE-luciferase reporter construct). The assay is classed as cell-based. The settings on record: Homo sapiens; SREBPv1 reporter cell line HepG2, 24 hours, 0.01 uM to 10 uM; read-out: Reporter Screening IC50 (nM) Activity Range. How it is done:
This assay was used to evaluate the effect on transcriptional activity SREBP of the compounds synthesized according to Examples 1-16, 20, and 22, using an SRE-luciferase reporter construct. On day 1, 10,000 cells were seeded in a 96 well (white) plate as per the plate map in Growth media without antibiotics. Cells were incubated at 37° C. for 8 hours. After 8 hours, cells were washed with DPBS for complete removal of FBS. DPBS was completely removed and Growth media was replaced with phenol free treatment medium (90 μl) with different FBS concentrations. The cells were then incubated at 37° C. for 24 hours with varying doses (0.01 uM to 10 uM) of compounds. Then a Luciferase assay was performed.
Reagents for performing Luciferase assay were stored at −20° C. To a tube of lyophilized assay substrate was added 1 mL Substrate Solvent and mixed well. The Substrate tube after reconstitution was covered with aluminum foil so as to keep it protected from light. The assay buffer was thawed to room temperature. To 20 mL Assay Buffer was added 200 μL of reconstituted 100× Substrate and mixed well. The reconstituted substrate as well as the assay solution (buffer+substrate) was protected from light throughout the procedure by keeping it covered with aluminum foil.
Using a multi-channel pipette, 100 μL Assay Solution (buffer+substrate) was added directly to each sample well in Plate 1, which was incubated for 30 min (plate was covered with aluminum foil). After 30 min incubation, the plate was read for total luminescence. Each well was read for 2 seconds in a plate luminometer. (Microplate reader Envision Microplate reader from Perkin Elmer). Precaution was taken to incubate plate exactly for 30 min prior to reading on the plate reader.
Materials: SREBPv1 Reporter cell line: HepG2—#32251. Growth Medium: MEM (Corning 10-010), 10% FBS, 1% GlutaMax (Invitrogen Catalog #35050061), […] (Invitrogen Catalog #A1113803) and 1% Penicillin-Streptomycin (Pen-Strep). Treatment Media: Phenol-free MEM (Invitrogen Catalog #51200-038) and 1% GlutaMax (Invitrogen Catalog #35050061). Luciferase Assay: LightSwitch Luciferase Assay Kit (Catalog #32032). LDH assay: Pierce LDH Cytotoxicity Assay Kit (Catalog #SD249616).
For the compound `CC(C)(C)c1cc(-c2cc(-c3ccc(C(=O)N4CCC(O)CC4)cc3Cl)ccn2)ccn1` [Compound 1, (4-(2′-(tert-butyl)-[2,4′-bipyridin]-4-yl)-3-chlorophenyl)(4-hydroxypiperidin-1-yl)methanone], the 50% inhibitory concentration (IC50) was not above 1000 nM. For the compound `CC(C)(C)c1cc(-c2ccnc(-c3ccc(C(=O)N4CCC(O)CC4)cc3Cl)c2)ccn1` [Compound 2, (4-(2′-(tert-butyl)-[4,4′-bipyridin]-2-yl)-3-chlorophenyl)(4-hydroxypiperidin-1-yl)methanone], the 50% inhibitory concentration (IC50) was not above 500 nM.

`CC(C)(C)c1cc(-c2cccc(-c3ccc(C(=O)N4CCC(O)CC4)cc3Cl)n2)ccn1` [Compound 3, (4-(2′-(tert-butyl)-[2,4′-bipyridin]-6-yl)-3-chlorophenyl)(4-hydroxypiperidin-1-yl)methanone]: the IC50 is not above 1000 nM.

`CC(C)(C)c1cc(-c2cncc(-c3ccc(C(=O)N4CCC(O)CC4)cc3Cl)c2)ccn1` [Compound 4, (4-(2′-(tert-butyl)-[3,4′-bipyridin]-5-yl)-3-chlorophenyl)(4-hydroxypiperidin-1-yl)methanone]: the IC50 was not above 100 nM. To `CC(C)(C)c1cc(-c2cccc(-c3ccc(C(=O)N4CCC(O)CC4)cc3Cl)c2)ccn1` [Compound 5, (3′-(2-(tert-butyl)pyridin-4-yl)-2-chloro-[1,1′-biphenyl]-4-yl)(4-hydroxypiperidin-1-yl)methanone] belongs not above 100 nM; to `CC(C)(C)c1cc(-c2ccnc(-c3ccc(C(=O)N4CCC(O)CC4)cc3Cl)n2)ccn1` [Compound 6, (4-(4-(2-(tert-butyl)pyridin-4-yl)pyrimidin-2-yl)-3-chlorophenyl)(4-hydroxypiperidin-1-yl)methanone], not above 1000 nM.

`CC(C)(C)c1cc(-c2nccc(-c3ccc(C(=O)N4CCC(O)CC4)cc3Cl)n2)ccn1` [Compound 7, (4-(2-(2-(tert-butyl)pyridin-4-yl)pyrimidin-4-yl)-3-chlorophenyl)(4-hydroxypiperidin-1-yl)methanone]: the IC50 is not above 1000 nM.

As to `CC(C)(C)c1cc(-c2cc(-c3ccc(C(=O)N4CCC(O)CC4)cc3Cl)ncn2)ccn1` [Compound 8, (4-(6-(2-(tert-butyl)pyridin-4-yl)pyrimidin-4-yl)-3-chlorophenyl)(4-hydroxypiperidin-1-yl)methanone], the concentration for half-maximal inhibition (IC50) was not above 1000 nM. Consider `CC(C)(C)c1cc(-c2cncc(-c3ccc(C(=O)N4CCC(O)CC4)cc3Cl)n2)ccn1` [Compound 9, (4-(6-(2-(tert-butyl)pyridin-4-yl)pyrazin-2-yl)-3-chlorophenyl)(4-hydroxypiperidin-1-yl)methanone], for which the IC50 is not above 1000 nM. Under `COc1ncc(-c2ccnc(C(C)(C)C)c2)cc1-c1ccc(C(=O)N2CCC(O)CC2)cc1Cl` [Compound 10, (4-(2′-(tert-butyl)-6-methoxy-[3,4′-bipyridin]-5-yl)-3-chlorophenyl)(4-hydroxypiperidin-1-yl)methanone] stands not above 3000 nM; under `CC(C)NC(=O)Nc1ccc(-c2cncc(-c3ccnc(C(C)(C)C)c3)c2)c(Cl)c1` [Compound 11, 1-(4-(2′-(tert-butyl)-[3,4′-bipyridin]-5-yl)-3-chlorophenyl)-3-isopropylurea], not above 1000 nM; under `O=C(c1ccc(-c2cncc(-c3ccnc(C4OCCO4)c3)c2)c(Cl)c1)N1CCC(O)CC1` [Compound 12, (4-(2′-(1,3-dioxolan-2-yl)-[3,4′-bipyridin]-5-yl)-3-chlorophenyl)(4-hydroxypiperidin-1-yl)methanone], not above 1000 nM. Under `CC(C)(C)OC(=O)NC1CCCN(C(=O)c2ccc(-c3cncc(-c4ccnc(C(C)(C)C)c4)c3)c(Cl)c2)C1` (stereo not drawn) [Compound 13, tert-butyl (1-(4-(2′-(tert-butyl)-[3,4′-bipyridin]-5-yl)-3-chlorobenzoyl)piperidin-3-yl)carbamate] stands not above 500 nM; under `CC(C)(C)c1cc(-c2cncc(-c3ccc(C(=O)N4CCCC(O)C4)cc3Cl)c2)ccn1` (stereo not drawn) [Compound 14, (4-(2′-(tert-butyl)-[3,4′-bipyridin]-5-yl)-3-chlorophenyl)(3-hydroxypiperidin-1-yl)methanone], not above 100 nM. In the case of `COC1CCCN(C(=O)c2ccc(-c3cncc(-c4ccnc(C(C)(C)C)c4)c3)c(Cl)c2)C1` (stereo not drawn) [Compound 15, (4-(2′-(tert-butyl)-[3,4′-bipyridin]-5-yl)-3-chlorophenyl)(3-methoxypiperidin-1-yl)methanone], the concentration for half-maximal inhibition (IC50) is not above 100 nM.

Take `CC(C)OC(=O)Nc1ccc(-c2cncc(-c3ccnc(C(C)(C)C)c3)c2)c(Cl)c1` [Compound 16, isopropyl (4-(2′-(tert-butyl)-[3,4′-bipyridin]-5-yl)-3-chlorophenyl)carbamate]: the IC50 was not above 500 nM. Turning to `CC(C)OC(=O)Nc1ccc(-c2cncc(-c3ccnc(C4OCCO4)c3)c2)c(Cl)c1` [Compound 20, Isopropyl (4-(2′-(1,3-dioxolan-2-yl)-[3,4′-bipyridin]-5-yl)-3-chlorophenyl)carbamate], the IC50 is not above 500 nM.

Regarding `CC1(O)CCCN(C(=O)c2ccc(-c3cncc(-c4ccnc(C(C)(C)C)c4)c3)c(Cl)c2)C1` (stereo not drawn) [Compound 22, (4-(2′-(tert-butyl)-[3,4′-bipyridin]-5-yl)-3-chlorophenyl)(3-hydroxy-3-methylpiperidin-1-yl)methanone], the IC50 is not above 500 nM.
